Assay results as given in patent US7498343B2, “Mycobacterial inhibitors” (priority 2002, dated 2009).

Columns and labels:
[1] = test system: M. Smegmatis ATCC607; assay: In-vitro method for testing compounds for anti-bacterial activity against strain M. smegmatis ATCC607 (Alamar Blue growth inhibition); format: cell-based; conditions: M. smegmatis ATCC607; pIC50 = -logIC50, IC50 in M, 50% inhibitory concentration for bacterial growth; 48 hours incubation
Procedure: C.2. In-vitro Method for Testing Compounds for Anti-bacterial Activity Against Strain M. Smegmatis ATCC607. […] Subsequently, stock solutions (7.8×final test concentration) of compounds were added in 45 μl volumes to a series of duplicate wells in column 2 so as to allow evaluation of their effects on bacterial growth. Serial five-fold dilutions (45 μl in 180 μl) were made directly in the microtiter plates from column 2 to 11 using a customised robot system (Zymark Corp., Hopkinton, Mass.). Pipette tips were changed after every 3 dilutions to minimize pipetting errors with high hydrophobic compounds. Untreated control samples with (column 1) and without (column 12) inoculum were included in each microtiter plate. Approximately 250 CFU per well of bacteria inoculum, in a volume of 100 μl in 2.8×Mueller-Hinton broth medium, was added to the rows […]. The same volume of broth medium without inoculum was added to column 12 in row A to H. The cultures were incubated at 37° C. for 48 hours in a humidified 5% CO2 atmosphere (incubator with open air valve and continuous ventilation). At the end of incubation, two days after inoculation, the bacterial growth was quantitated fluorometrically. Therefore Alamar Blue (10×) was added to all wells in a volume of 20 μl and plates were incubated for another 2 hours at […] The fluorescence was read in a computer-controlled fluorometer (Cytofluor, Biosearch) at an excitation wavelength of 530 nm and an emission wavelength of 590 nm (gain 30). The % growth inhibition achieved by the compounds was calculated according to standard methods.

[2] = test system: Mycobacterium tuberculosis (strain H37RV); assay: In-vitro method for testing compounds against M. tuberculosis (resazurin growth inhibition, MIC); format: cell-based; conditions: MIC data representing IC90's, 7 days incubation, resazurin fluorescence

`COc1nc2ccc(Br)cc2cc1C(c1ccccc1)C(O)(CCN(C)C)c1ccc2ccccc2c1` (racemic) [Compound 45] was tested. Which pIC50 [1] did it give?
The pIC50 was 8.0.

And the MIC [2]?
The MIC was 1.76 microgram/ml.

Which pIC50 [1] does the source give for `COc1nc2ccc(Br)cc2cc1C(c1ccccc1)C(O)(CCN(C)C)c1ccc2ccccc2c1` (racemic) [Compound 46] here?
Its pIC50 is 6.4.

And the MIC [2]?
The MIC was 1.76 microgram/ml.

For `COc1nc2ccc(Br)cc2cc1C(c1ccccc1)C(O)(CCN1CCN(C)CC1)c1ccccc1` (racemic) [Compound 51], which pIC50 [1] is on record?
Its pIC50 is 5.8.

How did the pIC50 [1] turn out when `COc1nc2ccc(Br)cc2cc1C(c1ccccc1)C(O)(CCN1CCN(C)CC1)c1ccccc1` (racemic) [Compound 52] was run?
The pIC50 was 6.4.

And the MIC [2]?
The MIC was 7.06 microgram/ml.

With `COc1nc2ccc(Br)cc2cc1C(c1ccccc1)C(O)(CCn1cncn1)c1ccccc1` (racemic) [Compound 53] as the molecule, how does the pIC50 [1] read?
The pIC50 was 5.1.

What about the MIC [2] of the same molecule?
The MIC was 52.94 microgram/ml.

With `COc1nc2ccc(Br)cc2cc1C(c1ccccc1)C(O)(CCn1cncn1)c1ccccc1` (racemic) [Compound 54] as the molecule, how does the pIC50 [1] read?
The pIC50 was 4.1.

And the MIC [2]?
The MIC was 52.94 microgram/ml.

`COc1nc2ccc(Br)cc2cc1C(c1ccccc1)C(O)(CCN1CCSCC1)c1ccccc1` (racemic) [Compound 55] was tested. Which pIC50 [1] did it give?
The pIC50 was 5.1.

What about the MIC [2] of the same molecule?
The MIC was 44.77 microgram/ml.

For `COc1nc2ccc(Br)cc2cc1C(c1ccccc1)C(O)(CC[N+](C)(C)C)c1ccccc1.[I-]` (racemic) [Compound 57], which pIC50 [1] is on record?
Its pIC50 is 5.4.

What about the MIC [2] of the same molecule?
Its MIC is 25.77 microgram/ml.

Which results are given for `COc1nc2ccc(Br)cc2cc1C(c1ccccc1)C(O)(CC[N+](C)(C)[O-])c1ccccc1` (racemic) [Compound 58]?
pIC50 [1]: 6.8; MIC [2]: 16.49 microgram/ml

How did the pIC50 [1] turn out when `COc1nc2ccc(Br)cc2cc1C(c1ccccc1)C(O)(CCN(C)C)c1ccccc1F` (racemic) [Compound 69] was run?
The pIC50 was 8.5.

What about the MIC [2] of the same molecule?
Its MIC is 0.13 microgram/ml.

`COc1nc2ccc(Br)cc2cc1C(c1ccccc1)C(O)(CCN(C)C)c1ccccc1F` (racemic) [Compound 70] was tested. Which pIC50 [1] did it give?
Its pIC50 is 5.8.

What about the MIC [2] of the same molecule?
The MIC was 52.35 microgram/ml.

For `COc1nc2ccc(Br)cc2cc1C(c1ccc(Cl)cc1)C(O)(CCN(C)C)c1cccc2ccccc12` (racemic) [Compound 73], which pIC50 [1] is on record?
Its pIC50 is 8.0.

What about the MIC [2] of the same molecule?
The MIC was 23.49 microgram/ml.

What does the source list for `COc1nc2ccc(Br)cc2cc1C(c1ccc(Cl)cc1)C(O)(CCN(C)C)c1cccc2ccccc12` (racemic) [Compound 74]?
pIC50 [1]: 6.5; MIC [2]: 59.00 microgram/ml

What does the source list for `COc1nc2ccc(Br)cc2cc1C(c1ccccc1)C(O)(CCN(C)C)c1ccc2c(c1)OCO2` (racemic) [Compound 75]?
pIC50 [1]: 7.9; MIC [2]: 1.74 microgram/ml

For `COc1nc2ccc(Br)cc2cc1C(c1ccccc1)C(O)(CCN(C)C)c1ccc2c(c1)OCO2` (racemic) [Compound 76], which pIC50 [1] is on record?
The pIC50 was 5.9.

And the MIC [2]?
The MIC was 1.74 microgram/ml.

`COc1nc2ccc(Br)cc2cc1C(c1ccccc1)C(O)(CCN(C)C)c1ccc2c(c1)OCCO2` (racemic) [Compound 77] was tested. Which pIC50 [1] did it give?
Its pIC50 is 7.2.

And the MIC [2]?
Its MIC is 8.93 microgram/ml.

`COc1nc2ccc(Br)cc2cc1C(c1ccccc1)C(O)(CCN(C)C)c1ccc2c(c1)OCCO2` (racemic) [Compound 78] was tested. Which pIC50 [1] did it give?
Its pIC50 is 5.8.

What about the MIC [2] of the same molecule?
Its MIC is 44.76 microgram/ml.

Which results are given for `CN(C)CCC(O)(c1cccc2ccccc12)C(c1ccccc1)c1cc2cc(Br)ccc2nc1N1CCOCC1` (racemic) [Compound 79]?
pIC50 [1]: 7.2; MIC [2]: 2.43 microgram/ml

Which pIC50 [1] does the source give for `COc1nc2ccc(Br)cc2cc1C(c1ccccc1)C(O)(CCN(C)C)c1ccc(C#N)cc1` (racemic) [Compound 80] here?
Its pIC50 is 7.1.

And the MIC [2]?
The MIC was 2.11 microgram/ml.

Which pIC50 [1] does the source give for `COc1nc2ccc(Br)cc2cc1C(c1ccccc1)C(O)(CCN(C)C)c1ccc(C#N)cc1` (racemic) [Compound 81] here?
Its pIC50 is 5.4.

What about the MIC [2] of the same molecule?
The MIC was 42.14 microgram/ml.

Which pIC50 [1] does the source give for `COc1nc2ccc(C)cc2cc1C(c1ccccc1)C(O)(CCN(C)C)c1cccc2ccccc12` (racemic) [Compound 82] here?
Its pIC50 is 7.1.

What about the MIC [2] of the same molecule?
Its MIC is 3.90 microgram/ml.

How did the pIC50 [1] turn out when `COc1nc2ccc(C)cc2cc1C(c1ccccc1)C(O)(CCN(C)C)c1cccc2ccccc12` (racemic) [Compound 83] was run?
Its pIC50 is 5.8.

And the MIC [2]?
Its MIC is 7.78 microgram/ml.

What does the source list for `COc1nc2ccc(-c3ccccc3)cc2cc1C(c1ccccc1)C(O)(CCN(C)C)c1cccc2ccccc12` (racemic) [Compound 84]?
pIC50 [1]: 7.0; MIC [2]: 8.76 microgram/ml

How did the pIC50 [1] turn out when `COc1nc2ccc(-c3ccccc3)cc2cc1C(c1ccccc1)C(O)(CCN(C)C)c1cccc2ccccc12` (racemic) [Compound 85] was run?
Its pIC50 is 5.9.

What about the MIC [2] of the same molecule?
The MIC was 8.76 microgram/ml.

Which results are given for `COc1nc2ccc(Br)cc2cc1C(c1ccccc1)C(O)(CCN(C)C)c1cccnc1` (racemic) [Compound 86]?
pIC50 [1]: 6.9; MIC [2]: 16.02 microgram/ml

Which pIC50 [1] does the source give for `COc1nc2ccc(Br)cc2cc1C(c1ccccc1)C(O)(CCN(C)C)c1cccnc1` (racemic) [Compound 87] here?
Its pIC50 is 5.0.

What about the MIC [2] of the same molecule?
The MIC was 40.23 microgram/ml.

Which results are given for `CSc1nc2ccc(Br)cc2cc1C(c1ccccc1)C(O)(CCN(C)C)c1cccc2ccccc12` (racemic) [Compound 88]?
pIC50 [1]: 6.8; MIC [2]: 45.40 microgram/ml

With `COc1nc2ccc(Br)cc2cc1C(c1ccccc1)C(O)(CCN(C)C)c1ccc(N2CCOCC2)cc1` (racemic) [Compound 89] as the molecule, how does the pIC50 [1] read?
The pIC50 was 6.4.

What about the MIC [2] of the same molecule?
The MIC was 59.06 microgram/ml.

How did the pIC50 [1] turn out when `COc1nc2ccc(Br)cc2cc1C(c1ccccc1)C(O)(CCN(C)C)c1ccc(N2CCOCC2)cc1` (racemic) [Compound 90] was run?
The pIC50 was 5.3.

And the MIC [2]?
The MIC was 59.06 microgram/ml.

How did the pIC50 [1] turn out when `COc1nc2ccccc2cc1C(c1ccccc1)C(O)(CCN(C)C)c1cccc2ccccc12` (racemic) [Compound 91] was run?
The pIC50 was 7.5.

And the MIC [2]?
The MIC was 1.51 microgram/ml.

With `COc1nc2ccccc2cc1C(c1ccccc1)C(O)(CCN(C)C)c1cccc2ccccc12` (racemic) [Compound 92] as the molecule, how does the pIC50 [1] read?
Its pIC50 is 6.5.

And the MIC [2]?
The MIC was 7.55 microgram/ml.

For `COc1nc2ccccc2cc1C(c1ccccc1)C(O)(CCN(C)C)c1cccc(F)c1` (racemic) [Compound 93], which pIC50 [1] is on record?
The pIC50 was 4.8.

And the MIC [2]?
Its MIC is 35.31 microgram/ml.

Which pIC50 [1] does the source give for `COc1nc2ccccc2cc1C(c1ccccc1)C(O)(CCN(C)C)c1cccc(F)c1` (racemic) [Compound 94] here?
The pIC50 was 7.9.

What about the MIC [2] of the same molecule?
The MIC was 1.77 microgram/ml.

What does the source list for `COc1nc2ccc(Br)cc2cc1C(c1ccccc1)C(O)(CCc1ccccc1)CCN(C)C` (racemic) [Compound 95]?
pIC50 [1]: 6.9; MIC [2]: 16.87 microgram/ml

`COc1nc2ccc(Br)cc2cc1C(c1ccccc1)C(O)(CC[N+](C)(C)[O-])c1cccc2ccccc12` (racemic) [Compound 101] was tested. Which pIC50 [1] did it give?
The pIC50 was 5.8.

What about the MIC [2] of the same molecule?
Its MIC is 9.06 microgram/ml.

`CN(C)CCC(O)(c1ccccc1)C(c1ccccc1)c1cc2cc(Br)ccc2nc1O` (single isomer, unassigned) [Compound 59] was tested. Which pIC50 [1] did it give?
The pIC50 was 5.1.

How did the pIC50 [1] turn out when `CN(C)CCC(O)(c1ccccc1)C(c1ccccc1)c1cc2cc(Br)ccc2nc1O` (single isomer, unassigned) [Compound 60] was run?
Its pIC50 is 5.6.

`CN(C)CCC(O)(c1ccccc1)C(c1ccccc1)c1cc2cc(Br)ccc2n2ccnc12` (single isomer, unassigned) [Compound 104] was tested. Which pIC50 [1] did it give?
The pIC50 was 6.6.

`CN(C)CCC(O)(c1ccccc1)C(c1ccccc1)c1cc2cc(Br)ccc2n2ccnc12` (single isomer, unassigned) [Compound 105] was tested. Which pIC50 [1] did it give?
The pIC50 was 6.0.

With `COc1nc2ccc(Br)cc2cc1C(c1ccccc1)C(O)(CCCN1CCOCC1)c1ccc2ccccc2c1` (single isomer, unassigned) [Compound 161] as the molecule, how does the MIC [2] read?
Its MIC is 61.16 microgram/ml.

Which MIC [2] does the source give for `COc1nc2ccc(Br)cc2cc1C(c1ccccc1)C(O)(CCN1CCOCC1)c1ccc2cc(Br)ccc2c1` (single isomer, unassigned) [Compound 177] here?
Its MIC is 67.65 microgram/ml.

`COc1nc2ccc(Br)cc2cc1C(c1ccccc1)C(O)(CCn1ccnc1)c1cccc2ccccc12` (single isomer, unassigned) [Compound 187] was tested. Which MIC [2] did it give?
Its MIC is 57.85 microgram/ml.

`COc1nc2ccc(Br)cc2cc1C(c1ccccc1)C(O)(CCN1CCN(c2ncccn2)CC1)c1ccc2ccccc2c1` (single isomer, unassigned) [Compound 209] was tested. Which MIC [2] did it give?
The MIC was 67.47 microgram/ml.

`COc1nc2ccc(Br)cc2cc1C(c1ccccc1)C(O)(CCN(C)C)c1ccccc1` (stereo not drawn) [Compound 1] was tested. Which pIC50 [1] did it give?
The pIC50 was 7.3.

`COc1nc2ccc(Br)cc2cc1C(c1ccccc1)C(O)(CCN(C)C)c1ccccc1` (stereo not drawn) [Compound 2] was tested. Which pIC50 [1] did it give?
Its pIC50 is 6.8.

`COc1nc2ccc(Br)cc2cc1C(c1ccccc1)C(O)(CCN(C)C)c1ccccc1` (stereo not drawn) [Compound 3] was tested. Which pIC50 [1] did it give?
Its pIC50 is 6.7.

`COc1nc2ccc(Br)cc2cc1C(c1ccccc1)C(O)(CCN(C)C)c1ccccc1` (stereo not drawn) [Compound 4] was tested. Which pIC50 [1] did it give?
The pIC50 was 5.7.

Which pIC50 [1] does the source give for `COc1nc2ccc(Br)cc2cc1C(c1ccccc1)C(O)(CCN(C)C)c1cc(F)ccc1F` (stereo not drawn) [Compound 68] here?
The pIC50 was 6.4.

Which pIC50 [1] does the source give for `COc1nc2ccc(Br)cc2cc1C(c1ccccc1)C(O)(CCN(C)C)c1cccc(F)c1` (stereo not drawn) [Compound 108] here?
Its pIC50 is 7.0.

With `COc1nc2ccc(Br)cc2cc1C(c1ccccc1)C(O)(CCN1CCCCC1)c1ccc2ccccc2c1` (stereo not drawn) [Compound 128] as the molecule, how does the MIC [2] read?
Its MIC is 59.56 microgram/ml.
